Experiments:
Type in all cases: cell-based, human
[1] = system: ITGB4 and PXN expression, γH2AX in H358 cells; assay: Immunoblot after sublethal dose; conditions: 72 hours
Description: West blotting: Cell lysates were prepared with 1×RIPA buffer (MilliporeSigma) and denatured in 1× reducing sample buffer at 95° C. for 5 minutes. Protein samples (15 μg) were run on 4-15% TGX gels (Bio-Rad, Hercules, Calif., USA) and transferred onto nitrocellulose membranes (Bio-Rad). Blots were blocked with 5% non-fat milk in TBS-T for 1 hour at room temperature and probed with primary antibody diluted in 2.5% BSA in TBS-T overnight at 4° C. After three washes with TBS-T, blots were incubated with HRP-conjugated secondary antibodies for 2 hours at room temperature. After three more washes, bands of interest were visualized via chemiluminescence using Western Bright ECL HRP substrate (Advansta, Menlo Park, Calif., USA) and imaged with the ChemiDoc MP imager (Bio-Rad).
(§1) Then a sublethal dose was used to determine the effect of these compounds on ITGB4 and PXN expression and caspase activity (FIG. 9I). […] These eleven compounds were further screened in the cisplatin-resistant cell line H2009. […] Further, carfilzomib was tested in another cisplatin-resistant cell line H1993.

H1993 cells = assay: Carfilzomib dose response on cell proliferation, IC50 determination; conditions: increasing dose
Description: (§2) Cell proliferation and apoptosis assay. Cell proliferation assays were performed using cell lines stably transfected with NucLight Red Lentivirus (Essen Bioscience) to accurately visualize and count the nucleus of a single cell. Cells were seeded on a 96-well plate and allowed to adhere for 24 hours. Test compounds were added at indicated concentrations. Caspase-3/7 Green Apoptosis Reagent (Essen Bioscience) was also added as a green fluorescent indicator of caspase-3/7-mediated apoptotic activity. To monitor cell proliferation and apoptosis over time, the plate was placed in the IncuCyte S3 Live-Cell Analysis System (Essen BioScience) and images were acquired every 2 hours. Data analysis was generated by the IncuCyte software using a red fluorescence mask to accurately count each cell nucleus and a green fluorescence mask to measure apoptosis over time.
as §1

H2009 cells = assay: IncuCyte cell proliferation and caspase-3/7 apoptosis assay; conditions: 80 nM, 72 hours, among eleven compounds
Description: as §2
To determine whether the inhibition in cell proliferation associated with ITGB4 knockdown was due to enhanced apoptosis or reduced cell division (cytostatic), the Essen Bioscience Caspase-3/7 Green apoptosis assay in live cells was conducted. The NucView™[…], a DNA intercalating dye was used to enable quantification of apoptosis over time. The dye is impermeable and non-toxic to cells but once the cell membrane is permeabilized by caspase-3/7, the dye enters the cell and gets activated due to change in pH leading to the generation of green fluorescence that is then detected in real time and quantified using the IncuCyte System (FIG. 4B).
To address this, H1993 and H2009 cells were treated with cisplatin for 3 days and the changes were analyzed by immunoblotting. […] Next, H1993 and H2009 cells were transiently transfected with ITGB4 siRNA and 24 hours post-transfection they were treated with 10 μM cisplatin and cell proliferation and caspase activity were determined. […] However, in response to cisplatin in ITGB4 knockdown cells, the fold change dipped to <1, alluding to a cytotoxic effect (FIG. 4C). […] However, cell death was not due to caspase activation but appeared to be due to cell bursting which is seen in anoikis (FIGS. 3K and 3L).

H2009 spheroids = assay: 3D spheroid assay (red fluorescence viability, caspase-3/7); conditions: 300 nM, 72 hours
Description: 3D spheroid assay. 3D spheroid experiments were performed using cell lines stably transfected with NucLight Red Lentivirus (Essen Bioscience) to visualize red fluorescence as an indicator of cell viability. Cells were seeded on a 96-well ultra-low attachment plate and allowed to form spheroids overnight. Drug treatment was added as indicated along with Cytotox Green Reagent (Essen BioScience), used as a green fluorescence indicator of cell death due to loss of cell membrane integrity. To monitor cell proliferation and apoptosis over time, the plate was placed in the IncuCyte S3 Live-Cell Analysis System (Essen BioScience) and images were acquired every 2 hours. Data analysis was generated by the IncuCyte software using a red fluorescence mask to accurately measure intensity and area of red fluorescence, indicating spheroid viability and a green fluorescence mask, indicating cell death.
Confocal microscopy. […] Images were processed using ZEN software and analyzed using ImageJ (Schneider, C. A.; Rasband, W. S. & Eliceiri, K. W. (2012), “NIH Image to ImageJ: 25 years of image analysis”, Nature methods 9(7): 671-675, PMID 22930834).
To mimic conditions closer to in vivo, the effect of knocking down PXN or ITGB4 was discerned in spheroids (3D) formed from the cell lines used in 2D culture. […] The spheroid growth and survival were quantitated by monitoring dye intensity and area in real time. […]

Structure (SMILES): CC(C)C[C@H](NC(=O)[C@H](CCc1ccccc1)NC(=O)CN1CCOCC1)C(=O)N[C@@H](Cc1ccccc1)C(=O)N[C@@H](CC(C)C)C(=O)[C@@]1(C)CO1 [Carfilzomib]
- apoptosis, DNA damage (γH2AX) and ITGB4 expression [1]: induced apoptosis and caused DNA damage
- IC50 (H1993 cells; H1993 cells): 1770 nM
- IC50 (H1993 cells; Homo sapiens, NCI-H1993, H1993 cells): 1700 nM
- inhibitory effect in cell proliferation (H2009 cells): greatest inhibitory effect in cell proliferation
- drop in red intensity of spheroid (H2009 spheroids): 2 fold
- increase in caspase activity (H2009 spheroids): 2 fold

Source: patent US20210283211A1, “COMPOSITIONS AND METHODS OF ALLEVIATING RESISTANCE TO CHEMOTHERAPY” (CITY OF HOPE, priority 2019, published 2021)
